Bridge positions count the residues as written; N and C are the ends. Square brackets hold non-standard residues; d marks the D form. Peptide text beside a SMILES is read from it. * marks the point of attachment. 5FAM = O=C1OC2(c3ccc(O)cc3Oc3cc(O)ccc32)c2ccc(C(=O)*)cc21; Cha = N[C@@H](CC1CCCCC1)C(=O)O
Molecular target: DDE (fibrin-derived polypeptide) (Homo sapiens, UniProt P02671+P02675+P02679)
Assay: Direct binding fluorescence polarization (FP) assay using 5-carboxyfluorescein labeled peptides
Details: 20 nM CF5-labeled peptide, serial dilutions of DDE, anisotropy read at 485 nm; read-out: KD (μM) Direct Binding (n = 2)

Sequence of DDE (fibrin-derived polypeptide) (P02671 124-216): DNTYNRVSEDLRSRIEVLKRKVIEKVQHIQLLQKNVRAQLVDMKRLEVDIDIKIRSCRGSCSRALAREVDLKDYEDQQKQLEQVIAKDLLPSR
Sequence of DDE (fibrin-derived polypeptide) (P02675 164-491): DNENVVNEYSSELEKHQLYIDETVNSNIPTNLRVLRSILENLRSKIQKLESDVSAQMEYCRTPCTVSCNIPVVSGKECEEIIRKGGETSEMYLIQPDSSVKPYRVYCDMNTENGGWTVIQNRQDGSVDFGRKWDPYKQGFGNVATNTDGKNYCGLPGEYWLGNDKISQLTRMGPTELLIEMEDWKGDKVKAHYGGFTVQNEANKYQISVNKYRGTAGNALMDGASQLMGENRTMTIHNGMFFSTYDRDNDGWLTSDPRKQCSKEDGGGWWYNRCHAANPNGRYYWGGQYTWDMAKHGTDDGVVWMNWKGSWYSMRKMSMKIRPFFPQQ
Sequence of DDE (fibrin-derived polypeptide) (P02679 114-432): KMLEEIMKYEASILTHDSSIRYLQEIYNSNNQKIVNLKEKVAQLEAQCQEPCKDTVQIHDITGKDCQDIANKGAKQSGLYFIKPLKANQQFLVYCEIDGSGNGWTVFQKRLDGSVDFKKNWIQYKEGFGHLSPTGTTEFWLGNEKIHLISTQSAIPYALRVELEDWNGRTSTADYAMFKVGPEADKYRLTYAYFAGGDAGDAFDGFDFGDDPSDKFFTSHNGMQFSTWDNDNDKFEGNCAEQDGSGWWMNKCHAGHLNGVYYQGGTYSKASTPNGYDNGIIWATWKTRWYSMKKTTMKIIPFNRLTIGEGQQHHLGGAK
Sequence of DDE (fibrin-derived polypeptide) (P02671 36-97): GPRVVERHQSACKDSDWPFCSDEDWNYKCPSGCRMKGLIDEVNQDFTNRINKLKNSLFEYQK
Sequence of DDE (fibrin-derived polypeptide) (P02675 45-152): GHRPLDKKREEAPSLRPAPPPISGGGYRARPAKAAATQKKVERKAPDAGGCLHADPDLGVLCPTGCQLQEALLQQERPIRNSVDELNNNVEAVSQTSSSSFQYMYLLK
Sequence of DDE (fibrin-derived polypeptide) (P02679 27-88): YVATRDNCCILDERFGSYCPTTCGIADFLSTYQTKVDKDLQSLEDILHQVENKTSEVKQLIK

SMILES | Kd
CC(=O)N[C@@H](CCCNC(=N)N)C(=O)N[C@@H](Cc1c[nH]c2ccccc12)C(=O)N[C@@H](CCC(N)=O)C(=O)N1CCC[C@H]1C(=O)N[C@H]1CSSC[C@@H](C(=O)N[C@@H](Cc2c[nH]c3ccccc23)C(=O)N[C@@H](CC(=O)O)C(=O)N2CCC[C@H]2C(=O)NCC(=O)NCC(=O)NCC(=O)N[C@@H](CCCCNC(=O)c2ccc3c(c2)C(=O)OC32c3ccc(O)cc3Oc3cc(O)ccc32)C(N)=O)NC(=O)[C@H](Cc2ccccc2)NC(=O)[C@H]([C@@H](C)O)NC(=O)[C@H](Cc2c[nH]c3ccccc23)NC(=O)[C@H](CO)NC(=O)[C@H](CCC(=O)O)NC(=O)[C@H](C)NC(=O)[C@@H]2CCCN2C1=O [Seq049-CF5] (Ac-RWQPCPAESWTFCWDPGGGK(5FAM)-NH2; disulfide 5-13) | 0.21 µM
CC(=O)N[C@@H](CCCNC(=N)N)C(=O)NCC(=O)N[C@@H](Cc1c[nH]c2ccccc12)C(=O)N[C@@H](CCC(N)=O)C(=O)N1CCC[C@H]1C(=O)N[C@H]1CSSC[C@@H](C(=O)N[C@@H](Cc2c[nH]c3ccccc23)C(=O)N[C@@H](CC(=O)O)C(=O)N2CCC[C@H]2C(=O)NCC(=O)NCC(=O)NCC(=O)N[C@@H](CCCCNC(=O)c2ccc3c(c2)C(=O)OC32c3ccc(O)cc3Oc3cc(O)ccc32)C(N)=O)NC(=O)[C@H](Cc2ccccc2)NC(=O)[C@H]([C@@H](C)O)NC(=O)[C@H](Cc2c[nH]c3ccccc23)NC(=O)[C@H](CO)NC(=O)[C@H](CCC(=O)O)NC(=O)[C@H](Cc2c[nH]c3ccccc23)NC(=O)[C@@H]2CCCN2C1=O [Seq052-CF5] (Ac-RGWQPCPWESWTFCWDPGGGK(5FAM)-NH2; disulfide 6-14) | 0.53 µM
CC(=O)N[C@@H](CCCNC(=N)N)C(=O)NCC(=O)N[C@@H](Cc1c[nH]c2ccccc12)C(=O)N[C@@H](CCC(N)=O)C(=O)N1CCC[C@H]1C(=O)N[C@H]1CSSC[C@@H](C(=O)N[C@@H](Cc2c[nH]c3ccccc23)C(=O)N[C@@H](CC(=O)O)C(=O)N2CCC[C@H]2C(=O)NCC(=O)NCC(=O)NCC(=O)N[C@@H](CCCCNC(=O)c2ccc3c(c2)C(=O)OC32c3ccc(O)cc3Oc3cc(O)ccc32)C(N)=O)NC(=O)[C@H](CC2CCCCC2)NC(=O)[C@H]([C@@H](C)O)NC(=O)[C@H](Cc2c[nH]c3ccccc23)NC(=O)[C@H](CO)NC(=O)[C@H](CCC(=O)O)NC(=O)[C@H](C)NC(=O)[C@@H]2CCCN2C1=O [Seq053-CF5, Ac-RGWQPC*PAESWT-Cha-C*WDPGGGK(CF5)-NH2] (Ac-RGWQPCPAESWT[Cha]CWDPGGGK(5FAM)-NH2; disulfide 6-14) | 0.1 µM

Molecules with a lower Kd, results first:

Kd | SMILES
0.08 µM | CC(=O)N[C@@H](CCCNC(=N)N)C(=O)N[C@@H](Cc1c[nH]c2ccccc12)C(=O)N[C@@H](CCC(N)=O)C(=O)N1CCC[C@H]1C(=O)N[C@H]1CSSC[C@@H](C(=O)N[C@@H](Cc2c[nH]c3ccccc23)C(=O)N[C@@H](CC(=O)O)C(=O)N2CCC[C@H]2C(=O)NCC(=O)NCC(=O)NCC(=O)N[C@@H](CCCCNC(=O)c2ccc3c(c2)C(=O)OC32c3ccc(O)cc3Oc3cc(O)ccc32)C(N)=O)NC(=O)[C@H](CC2CCCCC2)NC(=O)[C@H]([C@@H](C)O)NC(=O)[C@H](Cc2c[nH]c3ccccc23)NC(=O)[C@H](CO)NC(=O)[C@H](CCC(=O)O)NC(=O)[C@H](C)NC(=O)[C@@H]2CCCN2C1=O [Seq050-CF5, Ac-RWQPC*PAESWT-Cha-C*WDPGGGK(CF5)-NH2] (Ac-RWQPCPAESWT[Cha]CWDPGGGK(5FAM)-NH2; disulfide 5-13)
0.06 µM | C[C@@H]1NC(=O)[C@@H]2CCCN2C(=O)[C@@H](NC(=O)[C@@H]2CCCN2C(=O)[C@H](CCC(N)=O)NC(=O)[C@H](Cc2c[nH]c3ccccc23)NC(=O)CN)CSSC[C@@H](C(=O)N[C@@H](Cc2c[nH]c3ccccc23)C(=O)N[C@@H](CC(=O)O)C(=O)N2CCC[C@H]2C(=O)NCC(=O)NCC(=O)NCC(=O)N[C@@H](CCCCNC(=O)c2ccc3c(c2)C(=O)OC32c3ccc(O)cc3Oc3cc(O)ccc32)C(N)=O)NC(=O)[C@H](CC2CCCCC2)NC(=O)[C@H]([C@@H](C)O)NC(=O)[C@H](Cc2c[nH]c3ccccc23)NC(=O)[C@H](CO)NC(=O)[C@H](CCC(=O)O)NC1=O [Seq051-CF5, GWQPC*PAESWT-Cha-C*WDPGGGK(CF5)-NH2] (H-GWQPCPAESWT[Cha]CWDPGGGK(5FAM)-NH2; disulfide 5-13; N-terminus assumed)
